Experimental data as given in patent US9249104B2, “Pyrazole indanyl carboxamides” (BAYER CROPSCIENCE AG, priority 2012, dated 2016).

What was measured:
Uromyces appendiculatus = test: In vivo preventive test on Uromyces appendiculatus (bean rust); conditions: preventive, bean plants, dose of 500 ppm, grading 11 days after contamination
Protocol: Bean plants (“Saxa” variety), sown in starter cups on a 50/50 peat soil-pozzolana substrate and grown at 24° C., are treated at the 2-leaf stage (9 cm height) by spraying with the active ingredient prepared as described above. Plants, used as controls, are treated with the mixture of acetone/tween/DMSO/water not containing the active material. After 24 hours, the plants are contaminated by spraying the leaves with an aqueous suspension of Uromyces appendiculatus spores (150 000 spores per ml). The spores are collected from infected plants and are suspended in water containing 2.5 ml/1 of Tween 80 at 10%. […] Grading (% of efficacy) is carried out 11 days after the contamination, in comparison with the control plants.

[1] = tested on: Fusarium nivale (var. majus); test: In vivo Fusarium nivale (var. majus) test (wheat)/preventive; conditions: 500 ppm, wheat plants, preventive, evaluated 5 days after inoculation
Protocol: • Solvent: 49 parts by weight of N,N-dimethylacetamide • Emulsifier: 1 part by weight of alkylaryl polyglycol ether To produce a suitable preparation of active compound, 1 part by weight of active compound or active compound combination is mixed with the stated amounts of solvent and emulsifier, and the concentrate is diluted with water to the desired concentration. To test for preventive activity, young plants are sprayed with the preparation of active compound or active compound combination at the stated rate of application. After the spray coating has been dried, the plants are slightly injured by using a sandblast and afterwards they are sprayed with a conidia suspension of Fusarium nivale (var. majus). The plants are placed in the greenhouse under a translucent incubation cabinet at a temperature of approximately 10° C. and a relative atmospheric humidity of approximately 100%.

Puccinia recondita = test: In vivo preventive test on Puccinia recondita (brown rust on wheat); conditions: 500 ppm, wheat plants sprayed 24 h before contamination, graded 12 days after contamination
Protocol: Wheat plants (“Scipion” variety), sown in starter cups on a 50/50 peat soil-pozzolana substrate and grown at 22° C., are treated at the 1-leaf stage (10 cm height) by spraying with the active ingredient prepared as described above. Plants, used as controls, are treated with the mixture of acetone/tween/DMSO/water not containing the active material. After 24 hours, the plants are contaminated by spraying the leaves with an aqueous suspension of Puccinia recondita spores (100 000 spores per ml). The spores are collected from an infected plant and are suspended in water to containing 2.5 ml/l of Tween 80 at 10%. […] Grading (% of efficacy) is carried out 12 days after the contamination, in comparison with the control plants.

Septoria tritici = test: In vivo preventive test on Septoria tritici (leaf spot on wheat); conditions: 500 ppm, wheat plants sprayed 24 h before contamination, graded 24 days after contamination
Protocol: Wheat plants (“Scipion” variety), sown in starter cups on a 50/50 peat soil-pozzolana substrate and grown at 22° C., are treated at the 1-leaf stage (10 cm height) by spraying with the active ingredient prepared as described above. Plants, used as controls, are treated with the mixture of acetone/tween/DMSO/water not containing the active material. After 24 hours, the plants are contaminated by spraying the leaves with an aqueous suspension of cryopreserved Septoria tritici spores (500 000 spores per ml). The contaminated wheat plants are incubated for 72 hours at 18° C. and at 100% relative humidity, and then for 21 days at 90% relative humidity. Grading (% of efficacy) is carried out 24 days after the contamination, in comparison with the control plants.

Botrytis cinerea = test: In vivo preventive test on Botrytis cinerea (grey mould); conditions: 500 ppm, gherkin plants sprayed 24 h before contamination, graded 4 to 5 days after contamination
Protocol: Gherkin plants (“Vert petit de Paris” variety), sown in starter cups on a 50/50 peat soil-pozzolana substrate and grown at 24° C., are treated at the Z11 cotyledon stage by spraying with the active ingredient prepared as described above. Plants, used as controls, are treated with the mixture of acetone/tween/DMSO/water not containing the active material. After 24 hours, the plants are contaminated by spraying the cotyledons with an aqueous suspension of cryopreserved Botrytis cinerea spores (50 000 spores per ml). The spores are suspended in a nutrient solution composed of 10 g/L of PDB, 50 g/L of D-Fructose, 2 g/L of NH4NO3 and 1 g/L of KH2PO4. The contaminated gherkin plants are incubated at 17° C. and at 90% relative humidity.

Pyrenophora teres = test: In vivo preventive test on Pyrenophora teres (net blotch on barley); conditions: graded 14 days after contamination; for Eff. %: 500 ppm, barley plants sprayed 24 h before contamination; for Efficacy: 100 ppm, barley plants, comparison with prior-art compound
Protocol: Barley plants (“Plaisant” variety), sown in starter cups on a 50/50 peat soil-pozzolana substrate and grown at 22° C., are treated at the 1-leaf stage (10 cm height) by spraying with the active ingredient prepared as described above. Plants, used as controls, are treated with the mixture of acetone/tween/DMSO/water not containing the active material. After 24 hours, the plants are contaminated by spraying the leaves with an aqueous suspension of Pyrenophora teres spores (12 000 spores per ml). The spores are collected from a 12-day-old culture. […] Grading (% of efficacy) is carried out 14 days after the contamination, in comparison with the control plants.

Alternaria brassicae = test: In vivo preventive test on Alternaria brassicae (leaf spot on radish); conditions: 500 ppm, radish plants sprayed 24 h before contamination, graded 6 days after contamination
Protocol: Radish plants (“Pernod Clair” variety), sown in starter cups on a 50/50 peat soil-pozzolana substrate and grown at 17° C., are treated at the cotyledon stage by spraying with the active ingredient prepared as described above. Plants, used as controls, are treated with the mixture of acetone/tween/DMSO/water not containing the active material. After 24 hours, the plants are contaminated by spraying the cotyledons with an aqueous suspension of Alternaria brassicae spores (50 000 spores per ml). The spores are collected from a 15-day-old culture. The contaminated radish plants are incubated at 20° C. and at 100% relative humidity. Grading (% of efficacy) is carried out 6 days after the contamination, in comparison with the control plants.

Sphaerotheca fuliginea = test: In vivo preventive test on Sphaerotheca fuliginea (powdery mildew on cucurbits); conditions: 500 ppm, gherkin plants sprayed 24 h before contamination, graded 12 days after contamination
Protocol: Gherkin plants (“Vert petit de Paris” variety), sown in starter cups on a 50/50 peat soil-pozzolana substrate and grown at 24° C., are treated at the Z11 cotyledon stage by spraying with the active ingredient prepared as described above. Plants, used as controls, are treated with the mixture of acetone/tween/DMSO/water not containing the active material. After 24 hours, the plants are contaminated by spraying the cotyledons with an aqueous suspension of Sphaerotheca fuliginea spores (100 000 spores per ml). The spores are collected from infected plants. […] Grading (% of efficacy) is carried out 12 days after the contamination, in comparison with the control plants.

Phytophthora infestans = format: in vivo; conditions: 500 ppm, tomato plants sprayed 24 h before contamination, graded 5 days after contamination
[2] = logP by HPLC on reversed phase columns (EEC directive 79/831 Annex V.A8); format: physicochemical; conditions: method [a]: LC-MS at pH 2.7, 0.1% formic acid in water / acetonitrile; compounds of formula (I), Table 1
Phakopsora pachyrhizi = test: In vivo Phakopsora test (soybeans)/preventive; conditions: 10 ppm, soybean plants, preventive, evaluated 7 days after inoculation
Protocol: To produce a suitable preparation of active compound, 1 part by weight of active compound is mixed with the stated amounts of solvent and emulsifier, and the concentrate is diluted with water to the desired concentration. To test for preventive activity, young plants are sprayed with the preparation of active compound at the stated rate of application. After the spray coating has dried on, the plants are inoculated with an aqueous spore suspension of the causal agent of soybean rust (Phakopsora pachyrhizi) and stay for 24 h without light in an incubation cabinet at approximately 24° C. and a relative atmospheric humidity of 95%. The plants remain in the incubation cabinet at approximately 24° C. and a relative atmospheric humidity of approximately 80% and a day/night interval of 12 h.

Pyricularia oryzae = format: in vivo; conditions: 500 ppm, rice plants sprayed 24 h before contamination, graded 6 days after contamination

| Compound | Eff. % (Uromyces appendiculatus) | Eff. % [1] | Eff. % (Puccinia recondita) | Eff. % (Septoria tritici) | Eff. % (Botrytis cinerea) | Eff. % (Pyrenophora teres) | Eff. % (Alternaria brassicae) | Eff. % (Sphaerotheca fuliginea) | Eff. % (Phytophthora infestans) | logP [2] | Eff. % (Phakopsora pachyrhizi) | Efficacy (Pyrenophora teres) | Eff. % (Pyricularia oryzae) |
| --- | --- | --- | --- | --- | --- | --- | --- | --- | --- | --- | --- | --- | --- |
| CC(C)OC1Cc2cccc(NC(=O)c3cn(C)nc3C(F)F)c2C1 (centres unmarked) [Example 2] | 100% | 75% | 100% | 90% |  |  |  |  |  |  |  |  |  |
| CC(C)C1Cc2cccc(NC(=O)c3cn(C)nc3C(F)F)c2C1 (centres unmarked) [Example 3] | 100% |  | 94% | 96% | 85% | 97% | 92% | 100% |  |  |  |  |  |
| CC1c2cccc(NC(=O)c3cn(C)nc3C(F)F)c2CC1(C)C (centres unmarked) [Example 5] |  |  | 100% | 91% | 88% |  | 71% | 98% | 89% |  |  |  |  |
| CC1Cc2c(NC(=O)c3cn(C)nc3C(F)F)cccc2C1(C)C (centres unmarked) [Example 6] | 98% |  | 100% | 95% | 95% |  |  | 100% |  | 3.55[a] | 96% |  |  |
| Cc1nn(C)c(F)c1C(=O)Nc1cccc2c1CC(C)C2(C)C (centres unmarked) [Example 8] | 100% |  | 100% |  |  |  | 79% |  |  | 3.52[a] |  | 83% | 83% |
| CC1c2c(NC(=O)c3cn(C)nc3C(F)F)cccc2C(C)(C)C1C (centres unmarked) [Example 9] | 100% |  | 100% | 90% | 100% | 97% | 94% | 100% |  |  | 84% |  |  |
| Cc1nn(C)c(C)c1C(=O)Nc1cccc2c1CC(C)(C)C2C (centres unmarked) [Example 13] | 100% |  | 100% |  |  | 75% | 93% |  |  | 3.13[a] |  |  | 83% |
| Cc1nn(C)c(C)c1C(=O)Nc1cccc2c1C(C)C(C)C2(C)C (centres unmarked) [Example 16] | 100% |  | 98% |  | 100% |  |  |  |  | 3.15[a] |  |  |  |
| CC1Cc2c(NC(=O)c3cnn(C)c3C(F)(F)F)cccc2C1(C)C (centres unmarked) [Example 17] | 100% |  | 98% |  | 94% |  |  |  |  | 3.73[a] |  |  |  |
| CCC1Cc2cccc(NC(=O)c3cn(C)nc3C(F)F)c2C1 (centres unmarked) [Example 27] | 100% |  | 100% | 100% |  | 97% | 79% | 100% |  | 3.35[a] |  |  |  |
| CC1Cc2c(NC(=S)c3cn(C)nc3C(F)F)cccc2C1(C)C (centres unmarked) [Example 28] | 100% |  |  | 83% |  |  |  | 100% |  | 3.85[a] |  |  | 93% |
| Cc1nn(C)c(F)c1C(=O)Nc1cccc2c1C(C)C(C)C2(C)C (centres unmarked) [Example 33] | 100% |  | 98% | 97% | 100% | 97% | 92% | 100% |  | 3.52[a] |  | at least 80% |  |
| CCC1Cc2c(NC(=O)c3c(C)nn(C)c3F)cccc2C1(C)C (centres unmarked) [Example 37] | 100% |  | 100% | 71% |  | 83% | 90% | 100% |  | 3.99[a] |  |  |  |
